Measured values taken from patent US6559173B1, “3-(heteroarylamino)methylene-1,3-dihydro-2H-indol-2-ones as kinase inhibitors” (Allergan, Inc., priority 2001, dated 2003).
pIC50: −log10 of the molar value.

Assays:
[1] = tested on: VEGF induced increases in intracellular calcium levels in HUVEC (human umbilical vein endothelial cells); assay: VEGF Stimulated Ca++ signal assay (FLIPR); assay type: cell-based; settings: VEGF 5 ng/mL; for inhibition at 10 µM: 30 min pre-incubation; for pIC50: 0.01 to 10.0 μM
Experimental: VEGF Stimulated Ca^++ Signal in vitro
Automated FLIPR (Fluorometric Imaging Plate Reader) technology was used to screen for inhibitors of VEGF induced increases in intracellular calcium levels in fluorescent dye loaded endothelial cells. HUVEC (human umbilical vein endothelial cells) (Clonetics) were seeded in 96-well fibronectin coated black-walled plates overnight @ 37° C./5%CO2. Cells were loaded with calcium indicator Fluo-4 for 45 minutes at 37° C. Cells were washed 4 times (Original Cell Wash, Labsystems) to remove extracellular dye. Test compounds were reconstituted in 100% DMSO and added to the cells to give a final DMSO concentration of 0.1%. For screening, cells were pre-incubated with test agents for 30 minutes, at a single concentration (10 μM) or at concentrations ranging from 0.01 to 10.0 μM followed by VEGF stimulation (5 ng/mL). Changes in fluorescence at 516 nm were measured simultaneously in all 96 wells using a cooled CCD camera. Data were generated by determining max-min fluorescence levels for unstimulated, stimulated, and drug treated samples. IC50 values for test compounds were calculated from % inhibition of VEGF stimulated responses in the absence of inhibitor.

[2] = biological target: T1, cytoplasmic domain of the human VEGF receptor (VEGFR-2) (Homo sapiens, UniProt P35968); assay: KDR Assay; assay type: biochemical; settings: His-VEGFR-2, 3.6 μM ATP, poly-Glu-Tyr (4:1)
T1 construct: The cytoplasmic domain of the human VEGF receptor (VEGFR-2) was expressed as a Histidine-tagged fusion protein; His tag (Histidine-tagged fusion); made in house; host or cells: insect cells (engineered baculovirus)
T1 sequence (P35968 786-1356 limits assumed): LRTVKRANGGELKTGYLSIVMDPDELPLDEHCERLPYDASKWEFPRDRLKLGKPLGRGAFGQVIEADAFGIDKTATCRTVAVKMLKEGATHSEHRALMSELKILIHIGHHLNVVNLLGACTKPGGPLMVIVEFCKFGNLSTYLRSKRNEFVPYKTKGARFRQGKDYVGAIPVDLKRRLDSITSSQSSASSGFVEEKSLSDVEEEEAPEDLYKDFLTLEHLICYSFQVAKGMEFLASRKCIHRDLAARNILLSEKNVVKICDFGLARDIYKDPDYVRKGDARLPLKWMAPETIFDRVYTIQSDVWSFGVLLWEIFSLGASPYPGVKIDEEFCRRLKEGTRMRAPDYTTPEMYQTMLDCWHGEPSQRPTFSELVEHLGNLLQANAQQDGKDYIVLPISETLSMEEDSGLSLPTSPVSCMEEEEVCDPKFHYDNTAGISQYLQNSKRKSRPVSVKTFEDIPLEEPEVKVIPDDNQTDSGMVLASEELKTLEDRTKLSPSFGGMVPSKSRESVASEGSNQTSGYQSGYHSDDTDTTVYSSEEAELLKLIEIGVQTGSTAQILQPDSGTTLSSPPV
Experimental: The cytoplasmic domain of the human VEGF receptor (VEGFR-2) was expressed as a Histidine-tagged fusion protein following infection of insect cells using an engineered baculovirus. His-VEGFR-2 was purified to homogeneity, as determined by SDS-PAGE, using nickel resin chromatography. Kinase assays were performed in 96 well microtiter plates that were coated overnight with 30 μg of poly-Glu-Tyr (4:1) in 10 mM Phosphate Buffered Saline (PBS), pH 7.2-7.4. The plates were incubated with 1% BSA and then washed four times with PBS prior to starting the reaction. Reactions were carried out in 120 μL reaction volumes containing 3.6 μM ATP in kinase buffer (50 mM Hepes buffer pH 7.4, 20 mM MgCl2, 0.1 mM MnCl2 and 0.2 mM Na3VO4). Test compounds were reconstituted in 100% DMSO and added to the reaction to give a final DMSO concentration of 5%. Reactions were initiated by the addition 0.5 ng of purified protein. Following a ten minute incubation at 25° C., the reactions were washed four times with PBS containing 0.05% Tween-20. 100 μl of a monoclonal anti-phosphotyrosine antibody-peroxidase conjugate was diluted 1:10000 in PBS-Tween-20 and added to the wells for 30 minutes. Following four washes with PBS-Tween-20, 100 μl of 0-Phenylenediamine Dihydrochloride in Phosphate-citrate buffer, containing urea hydrogen peroxide, was added to the wells for 7 minutes as a colorimetric substrate for the peroxidase. The reaction was terminated by the addition of 100 μl of 2.5N H2SO4 to each well and read using a microplate ELISA reader set at 492 nm. IC50 values for compound inhibition were calculated directly from graphs of optical density (arbitrary units) versus compound concentration following subtraction of blank values.

[3] = tested on: VEGF-induced EBD extravasation; assay: VEGF-induced Dermal Extravasation in Guinea Pig (Miles Assay); assay type: in vivo; settings: for in-vivo activity (Miles Assay, Table 3): oral administration; for Miles Assay % inhibition: single oral dose 75 mg/kg, vehicle PEG400
Experimental: VEGF-induced Dermal Extravasation in Guinea Pig (Miles Assay). Male Hartley guinea pigs (300-600 g) were anesthetized with isofluorane, sheared, and given a single oral dose of drug or the respective vehicle. Ten minutes prior to the end of drug treatment, guinea pigs were anesthetized with isofluorane, and 0.5% Evans blue dye (EBD) in PBS (13-15 mg/kg dose of EBD) was injected intravenously. After 5 minutes, triplicate intradermal injections of 100 ng rhVEGF165 in 100 μl PBS and of 100 μl PBS alone were administered on the flank. After 20 minutes, each animal was euthanized with Pentosol, and the skin containing the intradermal injection sites was removed for image analysis.
Using an analog video camera coupled to a PC, an image of each trans-illuminated skin sample was captured, and the integrated optical density of each injection site was measured using ImagePro 4. For each skin sample, the difference between the mean optical density of the VEGF sites and mean optical density of the PBS sites is the measure of VEGF-induced EBD extravasation in that animal. These measured values were averaged per study group to determine the mean VEGF-induced EBD extravasation for each experimental condition, and the group means were then compared to assess inhibition of VEGF-induced EBD extravasation in the drug-treated groups relative to the vehicle-treated controls.

SMILES | inhibition at 10 µM ([1]; Homo sapiens) | pIC50 ([1]; Homo sapiens) | pIC50 [2] | pIC50 [1] | in-vivo activity (Miles Assay, Table 3) [3] | Miles Assay % inhibition [3]
Cc1cc(NC=C2C(=O)Nc3ccccc32)no1 [Example 44, 3-[(5-Methyl-isoxazol-3-ylamino)-methylene]-1,3-dihydro-indol-2-one] | 97% | 5.59 | 6.19 |  |  | 
O=C1Nc2cc(F)ccc2C1=CNc1cc(-c2ccco2)[nH]n1 [Example 50, 6-Fluoro-3-[(5-furan-2-yl-1H-pyrazol-3-ylamino)-methylene]-1,3-dihydro-indol-2-one] |  | ≥ 6.00 | 6.01 | 6.23 |  | 
Cc1cccc2c1C(=CNc1cc(-c3ccco3)[nH]n1)C(=O)N2 [Example 7, 3-[(5-Furan-2-yl-1H-pyrazol-3-ylamino)-methylene]-4-methyl-1,3-dihydro-indol-2-one] | 98.3% | ≥ 6.00 | 6.27 | 6.04 |  | 
Cc1oc(C(C)(C)C)cc1-c1cc(NC=C2C(=O)Nc3ccc(F)cc32)[nH]n1 [Example 28, 3-{[5-(5-tert-Butyl-2-methyl-furan-3-yl)-2H-pyrazol-3-ylamino]-methylene}-5-fluoro-1,3-dihydro-indol-2-one] | 43.9% |  | 4.80 |  |  | 
O=C1Nc2ccccc2C1=CNc1ccon1 [Example 43, 3-(Isoxazol-3-ylaminomethylene)-1,3-dihydro-indol-2-one] | 62.4% | 5.12 | 5.63 |  |  | 
Cc1cc(C)cc(-c2cc(NC=C3C(=O)Nc4ccccc43)[nH]n2)c1 [Example 32, 3-{[5-(3,5-Dimethyl-phenyl)2H-pyrazol-3-ylamino]-methylene}-1,3-dihydro-indol-2-one] | 46.1% |  | 5.02 |  |  | 
Cc1cccc2c1C(=CNc1cc(-c3ccccc3)[nH]n1)C(=O)N2 [Example 8, 4-Methyl-3-[(5-phenyl-1H-pyrazol-3-ylamino)-methylene]-1,3-dihydro-indol-2-one] | 64.5% | 5.50 | 6.01 |  |  | 
Cc1cc(NC=C2C(=O)Nc3ccc(F)cc32)n[nH]1 [Example 26, 5-Fluoro-3-[(5-methyl-1H-pyrazol-3-ylamino)-methylene]-1,3-dihydro-indol-2-one] | 97.1% | ≥ 6.00 | 6.48 | 6.28 | significant in-vivo activity | 100%
O=C1Nc2ccc(Cl)cc2C1=CNc1cc(-c2ccco2)[nH]n1 [Example 10, 3-[(5-Furan-2-yl-1H-pyrazol-3-ylamino)-methylene]-5-chloro-1,3-dihydro-indol-2-one] | 76% | 5.49 | 5.99 |  |  | 
O=C1Nc2ccccc2C1=CNc1cc(-c2ccco2)[nH]n1 [Example 4, 3-[(5-Furan-2-yl-1H-pyrazol-3-ylamino)-methylene]-1,3-dihydro-indol-2-one] | 92.6% | ≥ 6.00 | 6.07 | 6.15 |  | 
COc1cccc(-c2cc(NC=C3C(=O)Nc4ccccc43)[nH]n2)c1 [Example 33, 3-{[5-(3-Methoxy-phenyl)-2H-pyrazol-3-ylamino]-methylene}-1,3-dihydro-indol-2-one] | 92.9% | 5.36 | 5.84 |  |  | 
Cc1cccc2c1C(=CNc1cc[nH]n1)C(=O)N2 [Example 6, 4-Methyl-3-[(1H-pyrazol-3-ylamino)-methylene]-1,3-dihydro-indol-2-one] | 97.6% | ≥ 6.00 | 6.30 | 5.97 | significant in-vivo activity | 83%
CCn1nccc1NC=C1C(=O)Nc2ccccc21 [Example 46, 3-[(2-Ethyl-2H-pyrazol-3-ylamino)-methylene]-1,3-dihydro-indol-2-one] | 42.4% |  | 4.94 |  |  | 
O=C1Nc2cc(F)ccc2C1=CNc1cc[nH]n1 [Example 53, 6-Fluoro-3-[(1H-pyrazol-3-ylamino)-methylene]-1,3-dihydro-indol-2-one] |  | 5.86 | 5.65 |  |  | 
Cc1noc(NC=C2C(=O)Nc3ccccc32)c1C [Example 45, 3-[(3,4-Dimethyl-isoxazol-5-ylamino)-methylene]-1,3-dihydro-indol-2-one] | 84.9% | 5.59 | 6.01 |  |  | 
COc1ccc(Cc2cc(NC=C3C(=O)Nc4ccccc43)n[nH]2)cc1 [Example 5, 3-{[5-(4-Methoxy-benzyl)-1H-pyrazol-3-ylamino]-methylene}-1,3-dihydro-indol-2-one] | 98% | ≥ 6.00 | 6.74 | 6.30 |  | 
CC(C)(C)c1cc(NC=C2C(=O)Nc3ccccc32)no1 [Example 41, 3-[(5-tert-Butyl-isoxazol-3-ylamino)-methylene]-1,3-dihydro-indol-2-one] | 96.5% | 5.00 | 6.11 |  |  | 
CCOc1ccc(-c2cc(NC=C3C(=O)Nc4ccccc43)[nH]n2)cc1 [Example 38, 3-{[5-(4-Ethoxy-phenyl)-2H-pyrazol-3-ylamino]-methylene}-1,3-dihydro-indol-2-one] | 70% | 5.17 | 5.00 |  |  | 
Cc1oc(C(C)(C)C)cc1-c1cc(NC=C2C(=O)Nc3ccccc32)n(C)n1 [Example 47, 3-{[5-(5tert-Butyl-2-methyl-furan-3-yl)-2-methyl-2H-pyrazol-3-ylamino]-methylene}-1,3-dihydro-indol-2-one] | 79.7% | 5.23 | 5.60 |  |  | 
O=C1Nc2ccccc2C1=CNc1cc(-c2ccccc2)[nH]n1 [Example 2, 3-[(5-Phenyl-H-pyrazol-3-ylamino)-methylene]-1,3-dihydro-indol-2-one] | 90.5% | 5.88 | 6.24 |  |  | 
Cc1oc(C(C)(C)C)cc1-c1cc(NC=C2C(=O)Nc3ccccc32)[nH]n1 [Example 29, 3-{[5-(5-tert-Butyl-2-methyl-furan-3-yl)-2H-pyrazol-3-ylamino]-methylene}-1,3-dihydro-indol-2-one] | 99.1% | ≥ 6.00 | 6.59 | 6.24 |  | 
